Assay results as given in US9617221B2, “Kinase modulators for the treatment of cancer” (Synovo GmbH, priority 2010, dated 2017).

Key:
Assay type in all cases: cell-based, mice
B cells = test: Proliferation of LPS-stimulated B cells; conditions: 10 μM
IL-1β = IL-1β production by LPS-stimulated macrophages; conditions: 5 μM, 72 h
Method: (§1) Peritoneal macrophage or splenocytes (lymphocytes and macrophage) were harvested from donor mice using standard techniques. Cells were placed in culture and stimulated with either LPS (10 μg/mL) or concanavalin A 5 μg/mL (Sigma Chemical Co., St Louis, Mo.) in RPMI-1640 medium supplemented with antibiotics, […] 2-mercaptoethanol, 10 mm HEPES buffer and 10% fetal calf serum (FCS) (see Holan et al., 1985) to stimulate macrophage and T-cells respectively. Compounds were added from DMSO stock solutions to a final concentration of 50 μM or less with DMSO not exceeding 1% of total volume. After 72 h, cell supernatant was recovered and the cytokine levels were estimated by ELISA. The effect of compounds on cytokine production was recorded as follows: […]

T cells = test: Proliferation of Con A-stimulated T cells; conditions: 10 μM
Method: as §1

IL-10 = IL-10 production by LPS-stimulated murine peritoneal macrophage (ELISA); conditions: murine peritoneal macrophage
Method: as §1

IL-4 = IL-4 production, Con A, spleen; conditions: 5 μM, 72 h
Method: as §1

Row | SMILES | Proliferation (LPS, B cells) (B cells) | IL-1β (Macrophages, LPS), amount of cytokine (IL-1β) | Proliferation (Con A, T cells) (T cells) | IL-10 by ELISA, % of solvent treated control (IL-10; 1.25 μM inhibitor in medium) | IL-10 by ELISA, % of solvent treated control (IL-10; 5 μM inhibitor in medium) | IL-10 by ELISA, % of solvent treated control (IL-10; 20 μM inhibitor in medium) | IL-4 (Con A, spleen), amount of cytokine (IL-4)
1 | CC[C@H]1OC(=O)[C@H](C)[C@@H](O[C@H]2C[C@@](C)(OC)[C@@H](O)[C@H](C)O2)[C@H](C)[C@@H](O[C@@H]2O[C@H](C)C[C@H](N(C)CC(O)CSc3nc(-c4ccc(F)cc4)c(-c4ccncc4)[nH]3)[C@H]2O)[C@](C)(O)C[C@@H](C)CN(C)[C@H](C)[C@@H](O)[C@]1(C)O (some centres unmarked) [Compound 20] | −1 % of control treated with solvent alone | 34 % of control treated with solvent alone | 0 % of control treated with solvent alone | −11 % of solvent treated control | −12 % of solvent treated control | −12 % of solvent treated control | −5 % of control treated with solvent alone
2 | CC[C@H]1OC(=O)[C@H](C)[C@@H](O[C@H]2C[C@@](C)(OC)[C@@H](O)[C@H](C)O2)[C@H](C)[C@@H](O[C@@H]2O[C@H](C)C[C@H](N(C)CCCC(=O)OCC(O)CSc3nc(-c4ccc(F)cc4)c(-c4ccncc4)[nH]3)[C@H]2O)[C@](C)(O)C[C@@H](C)CN(C)[C@H](C)[C@@H](O)[C@]1(C)O (some centres unmarked) [Compound 43g] | −1 % of control treated with solvent alone | 28 % of control treated with solvent alone | 3 % of control treated with solvent alone | 26 % of solvent treated control | −12 % of solvent treated control | −12 % of solvent treated control | 125 % of control treated with solvent alone
